Results taken from patent publication US20240051985A1, “METTL3 MODULATORS” (ACCENT THERAPEUTICS, INC., priority 2020, published 2024).

How the values were obtained:
[1] = biological target: T1, FLT3-ITD (Homo sapiens, UniProt P36888); assay: FLT3-ITD Caliper assay; assay type: biochemical; details: Table 4; read-out: FLT3-ITD Calipher assay IC50
T1 sequence (P36888 1-993): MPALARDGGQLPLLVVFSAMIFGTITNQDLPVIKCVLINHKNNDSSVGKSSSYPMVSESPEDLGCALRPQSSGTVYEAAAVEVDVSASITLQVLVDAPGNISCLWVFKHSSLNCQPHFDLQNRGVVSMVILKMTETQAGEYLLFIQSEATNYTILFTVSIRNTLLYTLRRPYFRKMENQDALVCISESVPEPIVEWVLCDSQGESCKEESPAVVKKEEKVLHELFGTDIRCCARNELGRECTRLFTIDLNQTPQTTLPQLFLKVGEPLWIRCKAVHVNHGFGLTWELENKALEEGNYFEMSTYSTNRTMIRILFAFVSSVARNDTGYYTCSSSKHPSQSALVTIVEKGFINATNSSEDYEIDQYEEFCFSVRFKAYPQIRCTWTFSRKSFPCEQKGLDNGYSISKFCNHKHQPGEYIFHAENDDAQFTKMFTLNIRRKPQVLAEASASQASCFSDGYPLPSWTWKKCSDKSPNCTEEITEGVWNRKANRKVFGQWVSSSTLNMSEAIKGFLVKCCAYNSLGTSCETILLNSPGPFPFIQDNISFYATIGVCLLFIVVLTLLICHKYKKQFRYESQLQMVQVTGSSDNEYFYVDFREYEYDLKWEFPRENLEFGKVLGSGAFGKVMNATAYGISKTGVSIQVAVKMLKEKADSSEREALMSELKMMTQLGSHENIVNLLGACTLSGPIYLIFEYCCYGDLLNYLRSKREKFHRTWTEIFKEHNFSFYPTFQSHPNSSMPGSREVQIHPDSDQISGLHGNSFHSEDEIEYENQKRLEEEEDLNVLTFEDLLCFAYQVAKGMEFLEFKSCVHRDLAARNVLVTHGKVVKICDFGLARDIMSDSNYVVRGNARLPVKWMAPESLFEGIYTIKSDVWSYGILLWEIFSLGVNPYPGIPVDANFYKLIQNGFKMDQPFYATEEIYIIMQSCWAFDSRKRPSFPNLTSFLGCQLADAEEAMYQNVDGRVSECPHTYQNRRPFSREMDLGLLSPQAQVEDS
Protocol: (§1) FLT3/FLT3-ITD Caliper Assays
(§2) Assays were performed in a 20 μl-volume in 384-well polypropylene microplates (Perkin Elmer Proxiplate, cat. No. 6059480) at ambient temperature. Optimized 1× assay buffer was 50 mM Hepes pH 7.5, 2 mM DTT, 0.01% Tween, 0.01% BSA, 10 mM MgCl2. For compound screening FLT3 (final concentration, f.c.=0.9 nM) or FLT3-ITD (f.c.=7 nM) was added using a Multidrop Combi (ThermoFisher Scientific, Waltham, MA) and preincubated for 10 min. Reactions were started by adding fluorescein-peptide (sequence 5-FAM-EAIYAAPFAKKK-CONH2) (f.c.=300 μM) and ATP (FLT3 f.c.=97 μM FLT3-ITD f.c.=146 μM) substrates. Reactions proceeded for 60 minutes. The reactions were stopped with LabChip ProfilerPro Separation Buffer containing EDTA (f.c.=20 mM). The plates were read on a Caliper microfluidics reader (PerkinElmer, Waltham, MA).

[2] = biological target: T2, FLT3 (Homo sapiens, UniProt P36888); assay: FLT3 Caliper assay; assay type: biochemical; details: Table 4; read-out: FLT3 Calipher assay IC50
T2 sequence (P36888 27-993): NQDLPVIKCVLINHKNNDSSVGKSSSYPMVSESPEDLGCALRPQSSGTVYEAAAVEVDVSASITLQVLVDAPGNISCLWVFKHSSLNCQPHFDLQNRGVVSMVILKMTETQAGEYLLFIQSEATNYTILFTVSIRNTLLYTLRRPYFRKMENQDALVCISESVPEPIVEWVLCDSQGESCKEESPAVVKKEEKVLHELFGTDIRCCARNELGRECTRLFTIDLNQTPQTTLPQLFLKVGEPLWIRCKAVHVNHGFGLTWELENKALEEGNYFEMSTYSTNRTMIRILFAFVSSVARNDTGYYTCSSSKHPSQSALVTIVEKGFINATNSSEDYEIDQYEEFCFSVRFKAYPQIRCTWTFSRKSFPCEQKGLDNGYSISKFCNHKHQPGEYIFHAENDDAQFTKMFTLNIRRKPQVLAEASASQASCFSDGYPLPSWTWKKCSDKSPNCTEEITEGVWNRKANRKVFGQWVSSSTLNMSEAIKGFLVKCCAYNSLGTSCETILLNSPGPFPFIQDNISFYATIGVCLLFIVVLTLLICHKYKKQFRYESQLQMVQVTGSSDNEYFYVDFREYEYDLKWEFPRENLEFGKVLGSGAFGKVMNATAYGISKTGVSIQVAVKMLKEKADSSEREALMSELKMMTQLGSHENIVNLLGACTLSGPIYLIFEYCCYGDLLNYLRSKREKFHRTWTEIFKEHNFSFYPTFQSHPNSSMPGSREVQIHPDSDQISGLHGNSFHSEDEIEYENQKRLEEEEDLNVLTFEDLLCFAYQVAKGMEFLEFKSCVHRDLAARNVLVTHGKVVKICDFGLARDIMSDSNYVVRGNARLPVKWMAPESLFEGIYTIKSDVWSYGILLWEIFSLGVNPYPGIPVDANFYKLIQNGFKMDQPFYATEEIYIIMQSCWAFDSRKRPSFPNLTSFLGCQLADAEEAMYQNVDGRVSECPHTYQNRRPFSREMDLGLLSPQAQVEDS
Protocol: as §1, §2

[3] = biological target: METTL3/METTL14 (Homo sapiens, UniProt Q86U44); assay: METTL3-14 standard enzyme assay (3H-SAM flashplate); details: Table 4; METTL3 biochemical assay
METTL3/METTL14, sequence (Q86U44 whole entry, species assumed): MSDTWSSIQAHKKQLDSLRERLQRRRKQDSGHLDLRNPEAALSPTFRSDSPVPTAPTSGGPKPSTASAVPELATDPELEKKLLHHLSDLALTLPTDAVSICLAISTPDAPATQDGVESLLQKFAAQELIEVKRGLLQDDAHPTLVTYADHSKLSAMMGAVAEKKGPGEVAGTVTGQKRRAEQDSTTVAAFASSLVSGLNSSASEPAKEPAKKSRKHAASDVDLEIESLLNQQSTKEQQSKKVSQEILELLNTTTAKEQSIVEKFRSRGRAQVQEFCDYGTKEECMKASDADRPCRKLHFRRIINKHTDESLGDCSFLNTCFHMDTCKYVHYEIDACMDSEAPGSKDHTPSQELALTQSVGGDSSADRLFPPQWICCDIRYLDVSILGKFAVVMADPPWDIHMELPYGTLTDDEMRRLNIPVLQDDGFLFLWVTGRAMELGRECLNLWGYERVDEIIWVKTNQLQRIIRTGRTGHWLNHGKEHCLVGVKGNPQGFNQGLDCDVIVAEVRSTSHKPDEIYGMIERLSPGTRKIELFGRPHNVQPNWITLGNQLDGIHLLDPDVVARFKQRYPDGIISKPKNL
METTL3/METTL14, sequence (Q9HCE5 whole entry partner, species assumed): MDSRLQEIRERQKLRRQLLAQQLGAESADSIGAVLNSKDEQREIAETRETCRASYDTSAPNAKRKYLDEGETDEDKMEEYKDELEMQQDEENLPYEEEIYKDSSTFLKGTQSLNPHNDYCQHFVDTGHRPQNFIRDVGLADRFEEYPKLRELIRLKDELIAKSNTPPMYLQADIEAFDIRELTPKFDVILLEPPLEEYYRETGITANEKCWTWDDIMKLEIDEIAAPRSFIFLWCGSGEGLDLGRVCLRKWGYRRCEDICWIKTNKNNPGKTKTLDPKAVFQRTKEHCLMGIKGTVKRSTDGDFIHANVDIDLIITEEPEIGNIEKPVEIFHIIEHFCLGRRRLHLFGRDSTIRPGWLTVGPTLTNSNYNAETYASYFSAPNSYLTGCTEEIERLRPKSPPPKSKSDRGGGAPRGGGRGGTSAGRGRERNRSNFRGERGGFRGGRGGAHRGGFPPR
Method in brief: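 METTL3/METTL14 (2.5 nM) preincubated 5 min, then reacted with 3′-biotinylated RNA UCUGGACUAAA (100 nM) and 3H-SAM (100 nM) for 30 min at ambient temperature in 20 mM HEPES pH 7.5, 50 mM KCl, 250 μM MgCl2, 1 mM DTT. Quenched with 15 μM cold SAM; product captured on streptavidin flashplates, scintillation counted.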

[4] = biological target: PRMT5-MEP50 (Homo sapiens, UniProt O14744); assay: PRMT5 assay (3H-SAM flashplate); details: Table 4; PRMT5 biochemical assay
PRMT5-MEP50, sequence (O14744 whole entry): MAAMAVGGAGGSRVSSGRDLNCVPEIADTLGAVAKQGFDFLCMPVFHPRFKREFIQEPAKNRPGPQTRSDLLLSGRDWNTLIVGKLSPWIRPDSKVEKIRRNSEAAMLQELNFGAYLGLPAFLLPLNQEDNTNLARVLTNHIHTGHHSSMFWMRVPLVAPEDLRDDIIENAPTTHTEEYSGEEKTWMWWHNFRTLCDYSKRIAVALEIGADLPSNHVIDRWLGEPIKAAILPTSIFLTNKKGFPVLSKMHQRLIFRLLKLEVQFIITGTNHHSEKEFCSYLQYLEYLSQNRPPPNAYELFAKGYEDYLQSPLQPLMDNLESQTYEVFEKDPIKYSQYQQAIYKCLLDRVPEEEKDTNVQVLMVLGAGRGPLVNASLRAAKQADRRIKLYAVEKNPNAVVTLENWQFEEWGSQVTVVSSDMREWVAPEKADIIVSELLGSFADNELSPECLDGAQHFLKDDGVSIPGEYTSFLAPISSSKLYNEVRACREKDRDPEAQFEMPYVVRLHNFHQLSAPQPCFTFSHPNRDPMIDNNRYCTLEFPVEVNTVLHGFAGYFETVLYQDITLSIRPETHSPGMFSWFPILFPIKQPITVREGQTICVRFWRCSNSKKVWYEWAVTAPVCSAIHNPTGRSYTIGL
PRMT5-MEP50, sequence (Q9BQA1 whole entry partner): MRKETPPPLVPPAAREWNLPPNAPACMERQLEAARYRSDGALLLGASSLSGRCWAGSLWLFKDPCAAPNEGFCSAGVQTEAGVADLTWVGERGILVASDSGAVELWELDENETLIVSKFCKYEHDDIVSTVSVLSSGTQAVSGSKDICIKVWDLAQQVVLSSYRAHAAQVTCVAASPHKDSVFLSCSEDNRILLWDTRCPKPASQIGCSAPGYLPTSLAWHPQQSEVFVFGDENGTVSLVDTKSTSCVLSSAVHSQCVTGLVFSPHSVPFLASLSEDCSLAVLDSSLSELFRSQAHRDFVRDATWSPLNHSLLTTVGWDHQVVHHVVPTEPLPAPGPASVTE
Method in brief: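 PRMT5-MEP50 at 2.5 nM, preincubated 5 min with compound in 20 mM Tris-HCl pH 8.0, 1 mM DTT, 0.01% Tween at ambient temperature. Biotinylated acetylated histone H4 peptide (100 nM) and 3H-SAM (250 nM) react 60 min, quenched with 15 μM cold SAM; methylation captured on streptavidin flashplates and scintillation-counted.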

| SMILES | IC50 [1] | IC50 [2] | IC50 [3] | IC50 [4] |
| --- | --- | --- | --- | --- |
| Cn1ccc(-c2cn([C@@H]3O[C@H](C(=O)NCCc4cccnc4)[C@@H](O)[C@H]3O)c3ncnc(N)c23)n1 [Compound I-160] | ≥ 1000 nM | ≥ 1000 nM | ≥ 1000 nM | 10 to 100 nM |
| Cn1ccc(-c2cn([C@@H]3O[C@H](C(=O)Nc4cc(NC5CCC5)ccn4)[C@@H](O)[C@H]3O)c3ncnc(N)c23)n1 [Compound I-162] | ≥ 1000 nM | ≥ 1000 nM | 100 to 1000 nM | 10 to 100 nM |
| Cn1ccc(-c2cn([C@@H]3O[C@H](C(=O)Nc4cc(NCC5CC5)ccn4)[C@@H](O)[C@H]3O)c3ncnc(N)c23)n1 [Compound I-163] | ≥ 1000 nM | ≥ 1000 nM | 100 to 1000 nM | 10 to 100 nM |
| Cn1ccc(-c2cn([C@@H]3O[C@H](C(=O)Nc4cc(NC5CCC5)ncn4)[C@@H](O)[C@H]3O)c3ncnc(N)c23)n1 [Compound I-164] | ≥ 1000 nM | ≥ 1000 nM | ≥ 1000 nM | 100 to 1000 nM |
| COCCNc1ccnc(NC(=O)[C@H]2O[C@@H](n3cc(-c4ccn(C)n4)c4c(N)ncnc43)[C@H](O)[C@@H]2O)c1 [Compound I-165] | ≥ 1000 nM | ≥ 1000 nM | 100 to 1000 nM | 100 to 1000 nM |
| CN(C)c1ccnc(NC(=O)[C@H]2O[C@@H](n3cc(-c4ccn(C)n4)c4c(N)ncnc43)[C@H](O)[C@@H]2O)c1 [Compound I-166] | ≥ 1000 nM | ≥ 1000 nM | 100 to 1000 nM | 10 to 100 nM |
| Cn1ccc(-c2cn([C@@H]3O[C@H](C(=O)Nc4ccnc(NC5CCC5)c4)[C@@H](O)[C@H]3O)c3ncnc(N)c23)n1 [Compound I-167] | ≥ 1000 nM | ≥ 1000 nM | 100 to 1000 nM | 100 to 1000 nM |
| Cn1ccc(-c2cn([C@@H]3O[C@H](C(=O)Nc4cc(N5CCC5)ccn4)[C@@H](O)[C@H]3O)c3ncnc(N)c23)n1 [Compound I-168] | ≥ 1000 nM | ≥ 1000 nM | 100 to 1000 nM | 10 to 100 nM |
| Cn1ccc(-c2cn([C@@H]3O[C@H](C(=O)Nc4cc(NCC(F)F)ccn4)[C@@H](O)[C@H]3O)c3ncnc(N)c23)n1 [Compound I-169] | ≥ 1000 nM | ≥ 1000 nM | 100 to 1000 nM | 100 to 1000 nM |
| Cn1ccc(-c2cn([C@@H]3O[C@H](C(=O)Nc4cc[nH]n4)[C@@H](O)[C@H]3O)c3ncnc(N)c23)n1 [Compound I-170] | 100 to 1000 nM | 100 to 1000 nM | ≥ 1000 nM | ≥ 1000 nM |
| Cn1ccc(-c2cn([C@@H]3O[C@H](C(=O)Nc4ccon4)[C@@H](O)[C@H]3O)c3ncnc(N)c23)n1 [Compound I-171] | ≥ 1000 nM | ≥ 1000 nM | ≥ 1000 nM | ≥ 1000 nM |
| Cc1ccnc(NC(=O)[C@H]2O[C@@H](n3cc(-c4ccn(C)n4)c4c(N)ncnc43)[C@H](O)[C@@H]2O)c1 [Compound I-172] | ≥ 1000 nM | ≥ 1000 nM | ≥ 1000 nM | ≥ 1000 nM |
| Cn1ccc(-c2cn([C@@H]3O[C@H](C(=O)NC4CCNC(=O)C4)[C@@H](O)[C@H]3O)c3ncnc(N)c23)n1 (some centres unmarked) [Compound I-175] | ≥ 1000 nM | ≥ 1000 nM | ≥ 1000 nM | ≥ 1000 nM |
| Cn1ccc(-c2cn([C@@H]3O[C@H](C(=O)N4CCNCC4)[C@@H](O)[C@H]3O)c3ncnc(N)c23)n1 [Compound I-176] | ≥ 1000 nM | ≥ 1000 nM | 100 to 1000 nM | 100 to 1000 nM |
| Cn1ccc(-c2cn([C@@H]3O[C@H](C(=O)N[C@H]4CCC(=O)NC4)[C@@H](O)[C@H]3O)c3ncnc(N)c23)n1 [Compound I-179] | ≥ 1000 nM | ≥ 1000 nM | ≥ 1000 nM | ≥ 1000 nM |

Results, then the compound that gave them:

| IC50 [1] | IC50 [2] | IC50 [3] | IC50 [4] | SMILES |
| --- | --- | --- | --- | --- |
| ≥ 1000 nM | ≥ 1000 nM | ≥ 1000 nM | ≥ 1000 nM | Cn1ccc(-c2cn([C@@H]3O[C@H](C(=O)N[C@@H]4CCC(=O)NC4)[C@@H](O)[C@H]3O)c3ncnc(N)c23)n1 [Compound I-180] |
| ≥ 1000 nM | ≥ 1000 nM | ≥ 1000 nM | 10 to 100 nM | Cn1ccc(-c2cn([C@@H]3O[C@H](C(=O)NCCCN4CCCC4)[C@@H](O)[C@H]3O)c3ncnc(N)c23)n1 [Compound I-181] |
| ≥ 1000 nM | ≥ 1000 nM | ≥ 1000 nM | 100 to 1000 nM | Cn1ccc(-c2cn([C@@H]3O[C@H](C(=O)NC4CCOCC4)[C@@H](O)[C@H]3O)c3ncnc(N)c23)n1 [Compound I-182] |
| ≥ 1000 nM | ≥ 1000 nM | ≥ 1000 nM | 10 to 100 nM | CN(C)CCCNC(=O)[C@H]1O[C@@H](n2cc(-c3ccn(C)n3)c3c(N)ncnc32)[C@H](O)[C@@H]1O [Compound I-183] |
| ≥ 1000 nM | ≥ 1000 nM | 100 to 1000 nM | 100 to 1000 nM | Cn1ccc(-c2cn([C@@H]3O[C@H](C(=O)NCc4cc(F)cc(F)c4)[C@@H](O)[C@H]3O)c3ncnc(N)c23)n1 [Compound I-191] |
| ≥ 1000 nM | ≥ 1000 nM | 100 to 1000 nM | 100 to 1000 nM | Cn1ccc(-c2cn([C@@H]3O[C@H](C(=O)NCCc4ccccc4)[C@@H](O)[C@H]3O)c3ncnc(N)c23)n1 [Compound I-192] |
| ≥ 1000 nM | ≥ 1000 nM | 100 to 1000 nM | ≥ 1000 nM | CNc1cccc(CCNC(=O)[C@H]2O[C@@H](n3cc(-c4ccn(C)n4)c4c(N)ncnc43)[C@H](O)[C@@H]2O)n1 [Compound I-193] |
| ≥ 1000 nM | ≥ 1000 nM | ≥ 1000 nM | 100 to 1000 nM | C[C@@H](NC(=O)[C@H]1O[C@@H](n2cc(-c3ccn(C)n3)c3c(N)ncnc32)[C@H](O)[C@@H]1O)C1CCNCC1 [Compound I-196] |
